The test has as its target T1, human TRPC6 (Homo sapiens, UniProt Q9Y210).
T1 construct: expressed in transfected cells
T1 sequence (Q9Y210 1-931): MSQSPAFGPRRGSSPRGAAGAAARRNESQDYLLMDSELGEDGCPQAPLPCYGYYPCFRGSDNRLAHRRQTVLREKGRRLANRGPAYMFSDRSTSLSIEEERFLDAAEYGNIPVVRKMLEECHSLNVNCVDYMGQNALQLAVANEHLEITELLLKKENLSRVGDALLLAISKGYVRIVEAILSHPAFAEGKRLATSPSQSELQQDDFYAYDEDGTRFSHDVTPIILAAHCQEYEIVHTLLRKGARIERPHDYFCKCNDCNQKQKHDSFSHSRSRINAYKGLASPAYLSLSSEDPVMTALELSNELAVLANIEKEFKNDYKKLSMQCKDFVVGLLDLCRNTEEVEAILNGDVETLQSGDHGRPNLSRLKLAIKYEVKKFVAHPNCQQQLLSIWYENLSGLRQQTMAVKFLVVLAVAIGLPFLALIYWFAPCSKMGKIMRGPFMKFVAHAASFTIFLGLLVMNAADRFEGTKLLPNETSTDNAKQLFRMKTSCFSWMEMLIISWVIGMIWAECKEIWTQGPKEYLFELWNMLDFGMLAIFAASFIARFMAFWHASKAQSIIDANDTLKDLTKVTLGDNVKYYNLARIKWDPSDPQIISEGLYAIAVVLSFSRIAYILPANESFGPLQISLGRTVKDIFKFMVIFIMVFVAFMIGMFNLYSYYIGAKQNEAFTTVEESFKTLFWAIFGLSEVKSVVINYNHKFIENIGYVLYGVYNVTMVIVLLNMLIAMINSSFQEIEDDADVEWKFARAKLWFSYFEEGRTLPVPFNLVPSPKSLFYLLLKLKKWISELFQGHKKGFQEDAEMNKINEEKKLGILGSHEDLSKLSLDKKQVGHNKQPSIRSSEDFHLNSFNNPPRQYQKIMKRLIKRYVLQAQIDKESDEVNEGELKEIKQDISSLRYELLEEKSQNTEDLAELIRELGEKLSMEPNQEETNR
The test can be described thus: TRPC6 calcium flux assay (FLIPR, OAG-stimulated calcium influx). The format is cell-based. The following applies: HEK293 cells stably transfected with human TRPC6, read-out: hTRPC6 Potency. On the procedure: Biological Example 1 TRPC6 Calcium Flux Assay
Potency of TRPC6 (Transient receptor potential channel family C6) inhibitors were measured by their inhibition of Calcium influx trigged by […] (1-Oleoyl-2-acetyl-sn-glycerol, Millipore Sigma, O6754) stimulation on HEK293 cells stablely transfected with human TRPC6 using a FLIPR tetra system. Cells were grown in a humidified environment at 37° C. under 5% CO2 using the growth medium with the following selective reagents (Dulbecco's Modified Eagle's Medium (DMEM) high glucose, 10% Fetal Bovine Serum, 1×PSGlu (penicillin-streptomycin glutamine), 1×NEAA (Non-essential amino acid), 1× Na Pyruvate and 200 ug/ml Hygromycin). For general passage, cells were grown to 70-90% confluency; the media was removed, and the cells were gently washed 2 times with calcium and magnesium free PBS (phosphate-buffered saline). Trypsin (3 mL) was applied for 5 minutes at 37° C. The cells were dislodged by rapping flask against base of a hand and 7 mL of growth medium was added to deactivate trypsin and re-suspend cells. The usual splitting schedule was 1:5 every 2-3 days.
Cells were plated the day before the assay, plating cell density is 1.0-1.5×10^4/25 μl/well in poly-D-lysine (PDL) coated 384-well plates using either multichannel pipettes or multidrop. These cells were first incubated with fluorescence dye at room temperature for 90-120 minutes after they were grown on PDL-coated 384-well black plates overnight (Dye loading buffer 10 ml example: 9 mL assay buffer, 1 mL, 10×PBX signal enhancer, 10 μL Calcium indicator). The cells were incubated with a dose of compounds for 25 minutes before being stimulated with TRPC6 agonist OAG. The OAG solution was prepared by adding OAG into assay buffer (Ca ringer solution base: 10 mM HEPES (4-(2-hydroxyethyl)-1-piperazine-ethanesulfonic acid), 4 mM MgCl2, 120 mM NaCl, 5 mM KCl, pH=7.2 @25° C.)+0.1% BSA+2 mM CaCl2) to the concentration of 0.2 mM/2% DMSO, which achieves a final on cell concentration of 50 uM/0.5% DMSO. 12.5 uL OAG mixture was added and the activation of the TRPC6 channel was measured by the change of intracellular Calcium levels on FLIPR terra system.
Data was acquired by measuring the fluorescent peak signal subtracted from the background during the 180 second imaging frame. Each data point is further normalized to 100% of OAG triggered signal vs. buffer. Table 16 provides the IC50 for each compound, which data is obtained by plotting peak signal over the compound dose.
In general terms: Calcium assays in cells follow changes in intracellular calcium, usually with a dye or a luminescent sensor.

Each structure is given as a SMILES string. Bounds are passed on as bounds.

For the molecule `CC(C#N)CN(C)C(=O)Cn1c(N2CC[C@@H](F)[C@H](N)C2)nc2cc(F)c(F)cc21` (mixture of isomers) [Example 621, 2-(2-((3R,4R)-3-amino-4-fluoropiperidin-1-yl)-5,6-difluoro-1H-benzo[d]imidazol-1-yl)-N-(2-cyanopropyl)-N-methylacetamide], the IC50 came to 75.3 nM.

With `N#CC1CN(C(=O)Cn2c(N3CC[C@@H](F)[C@H](N)C3)nc3cc(F)c(F)cc32)CCO1` (mixture of isomers) [Example 627, 4-(2-(2-((3R,4R)-3-amino-4-fluoropiperidin-1-yl)-5,6-difluoro-1H-benzo[d]imidazol-1-yl)acetyl)morpholine-2-carbonitrile], the IC50 was 122 nM.

For the molecule `N[C@@H]1CN(c2nc3cc(F)c(F)cc3n2CC(=O)N2CCCC(O)C2)CC[C@H]1F` (mixture of isomers) [Example 628, 2-(2-((3R,4R)-3-amino-4-fluoropiperidin-1-yl)-5,6-difluoro-1H-benzo[d]imidazol-1-yl)-1-(3-hydroxypiperidin-1-yl)ethanone], the IC50 was found to be 132 nM.

In the case of `CN(CC1CCOC1)C(=O)Cn1c(N2CC[C@@H](F)[C@H](N)C2)nc2cc(F)c(F)cc21` (mixture of isomers) [Example 633, 2-(2-((3R,4R)-3-amino-4-fluoropiperidin-1-yl)-5,6-difluoro-1H-benzo[d]imidazol-1-yl)-N-methyl-N-((tetrahydrofuran-3-yl)methyl)acetamide], the IC50 came out at 240 nM.

On to `COCC1CN(C(=O)Cn2c(N3CC[C@@H](F)[C@H](N)C3)nc3cc(F)c(F)cc32)CCO1` (mixture of isomers) [Example 647, 2-(2-((3R,4R)-3-amino-4-fluoropiperidin-1-yl)-5,6-difluoro-1H-benzo[d]imidazol-1-yl)-1-(2-(methoxymethyl)morpholino) ethanone], for which the IC50 was 3170 nM.

Consider `CCN(CC1CCN(C(C)=O)C1)C(=O)Cn1c(N2CC[C@@H](F)[C@H](N)C2)nc2cc(F)c(F)cc21` (mixture of isomers) [Example 650, N-((1-acetylpyrrolidin-3-yl)methyl)-2-(2-((3R,4R)-3-amino-4-fluoropiperidin-1-yl)-5,6-difluoro-1H-benzo[d]imidazol-1-yl)-N-ethylacetamide], for which the IC50 is more than 1750 nM.

Take `CN(CC1CCS(=O)(=O)C1)C(=O)Cn1c(N2CC[C@@H](F)[C@H](N)C2)nc2cc(F)c(F)cc21` (mixture of isomers) [Example 652, 2-(2-((3R,4R)-3-amino-4-fluoropiperidin-1-yl)-5,6-difluoro-1H-benzo[d]imidazol-1-yl)-N-((1,1-dioxidotetrahydrothiophen-3-yl)methyl)-N-methylacetamide]: the IC50 was more than 3750 nM.

With `N#Cc1ccc(Cn2c(N3CCCC4(CCCN4)C3)nc3ccccc32)nc1` (racemic) [Example 128, 6-((2-((5R)-1,7-diazaspiro[4.5-]decan-7-yl)-1H-benzimidazol-1-yl)methyl)-3-pyridinecarbonitrile, 6-((2-((5S)-1,7-diazaspiro[4.5]decan-7-yl)-1H-benzimidazol-1-yl)methyl)-3-pyridinecarbonitrile], the IC50 came out at 49.4 nM.

Take `CC1(CN)CCN(c2nc3ccccc3n2Cc2ccc(C#N)cc2)C1` (racemic) [Example 164, 4-((2-(3-(aminomethyl)-3-methylpyrrolidin-1-yl)-1H-benzo[d]imidazol-1-yl)methyl)benzonitrile]: the IC50 came to 253 nM.

For the molecule `N#Cc1ccc(Cn2c(N3C[C@@H](N)[C@H](c4ccccc4)C3)nc3ccccc32)cc1` (racemic) [Example 165, 4-((2-((3S,4R)-3-amino-4-phenylpyrrolidin-1-yl)-1H-benzo[d]imidazol-1-yl)methyl)benzonitrile & 4-((2-((3R,4S)-3 amino-4-phenylpyrrolidin-1-yl)-1H-benzo[d]imidazol-1-yl)methyl)benzonitrile], the IC50 was found to be 2060 nM.

Consider `CC(c1ccccn1)N(C)C(=O)Cn1c(N2CC[C@@H](F)[C@H](N)C2)nc2cc(F)c(F)cc21` (mixture of isomers) [Example 608, 2-(2-((3R,4R)-3-amino-4-fluoropiperidin-1-yl)-5,6-difluoro-1H-benzo[d]imidazol-1-yl)-N-methyl-N-(1-(pyridin-2-yl)ethyl)acetamide], for which the IC50 turned out to be 18.3 nM.

For the molecule `N#Cc1ccc(Cn2c(N3CC[C@@H](F)[C@H](N)C3)nc3ncccc32)cc1` (single isomer, unassigned) [Example 415], the IC50 is 274 nM.

On to `CN[C@@H]1CN(c2nc3c(F)cc(F)cc3n2[C@H](C)c2ccc(C#N)cn2)CC[C@H]1F` (single isomer, unassigned) [Example 438], for which the IC50 stood at 476 nM.

Turning to `CN[C@@H]1CN(c2nc3c(F)cc(F)cc3n2[C@@H](C)c2ccc(C#N)cn2)CC[C@H]1F` (single isomer, unassigned) [Example 439], the IC50 came out at 36.7 nM.

`CN[C@@H]1CN(c2nc3cc(F)cc(F)c3n2[C@H](C)c2ccc(C#N)cn2)CC[C@H]1F` (single isomer, unassigned) [Example 440]: the IC50 came to 1340 nM.

Turning to `CN[C@@H]1CN(c2nc3cc(F)cc(F)c3n2[C@@H](C)c2ccc(C#N)cn2)CC[C@H]1F` (single isomer, unassigned) [Example 441], the IC50 was found to be 2.23 nM.

Turning to `CO[C@@H]1CCN(c2nc3ccc(F)cc3n2Cc2ncc(Cl)cn2)C[C@H]1N` (single isomer, unassigned) [Example 456], the IC50 was found to be 8.44 nM.

`CN(CC(F)(F)F)C(=O)Cn1c(N2CC[C@H](F)[C@H](N)C2)nc2ccc(F)cc21` (single isomer, unassigned) [Example 466]: the IC50 worked out at 103 nM.

As for `N[C@@H]1CN(c2nc3ccc(F)cc3n2Cc2ncc(Cl)cn2)CC[C@H]1O` (single isomer, unassigned) [Example 496], the IC50 was determined as 61.1 nM.

Consider `CN(CC(F)F)C(=O)Cn1c(N2CC[C@@H](F)[C@H](N)C2)nc2cc(F)c(F)cc21` (single isomer, unassigned) [Example 634], for which the IC50 was 260 nM.

Consider `CN(CC(F)(F)F)C(=O)Cn1c(N2CC[C@@H](F)[C@H](N)C2)nc2cc(F)c(F)cc21` (single isomer, unassigned) [Example 635], for which the IC50 was 304 nM.

As for `Cc1cc(Cn2c(N3CC[C@@H](F)[C@H](N)C3)nc3cc(F)c(F)cc32)ccc1C#N` (stereo in doubt) [Example 345, 4-((2-((3R,4R)-3-amino-4-fluoro-1-piperidinyl)-5,6-difluoro-1H-benzimidazol-1-yl)methyl)-2-methylbenzonitrile], the IC50 was 1.5 nM.

With `CCOc1ccc2nc(N3CC[C@@H](F)C(N)C3)n(Cc3ccc(C#N)cc3)c2c1` (stereo in doubt) [Example 414, 4-((2-((3R,4R)-3-amino-4-fluoro-1-piperidinyl)-6-ethoxy-1H-benzimidazol-1-yl)methyl)benzonitrile], the IC50 stood at 1.5 nM.

As for `N#Cc1ccc(Cn2c(N3CCC(F)(F)C(N)C3)nc3ccc(F)cc32)cc1` (stereo in doubt) [Example 416, 4-((2-((3R)-3-amino-4,4-difluoro-1-piperidinyl)-6-fluoro-1H-benzimidazo-1-yl)methyl)benzonitrile], the IC50 was 2.36 nM.

The record behind these values is patent US11332459B2 (TEIJIN PHARMA LIMITED, priority 2017, dated 2022).
